Article PMC6711789 (Bioorganic & medicinal chemistry letters, 2019)
Marks after values point to notes of the source that are not given here.

Tests used:
[1] = tested on: S. aureus ATCC 8235-4 (MSSA); assay: Broth microdilution MIC against S. aureus ATCC 8235-4; assay type: cell-based; conditions: lowest concentration preventing visible growth
[2] = tested on: CYP1A2, 2C9, 2C19, 2D6, 3A4; assay: CYP inhibition; assay type: in vitro ADME; conditions: measured against CYP1A2, 2C9, 2C19, 2D6, 3A4
[3] = Cytotoxicity against HepG2 cells using CellTiter Glo; assay type: cell-based; conditions: human
[4] = tested on: COXI and SDH-A mitochondrial proteins; assay type: cell-based; conditions: read-out: Mt protein synthesis inhibition IC50

CC(=O)NC[C@H]1CN(c2ccc(N3CCOC4(CCN(C)C4)C3)c(F)c2)C(=O)O1 (stereo partly drawn) [Compound 17]
MIC [1]: > 32^b μg/mL

CC(=O)NC[C@H]1CN(c2ccc(N3CCO[C@@]4(CCCOC4)C3)c(F)c2)C(=O)O1 [Compound 19a]
CYP inhibition [2]: > 100 µM | EC50 [3]: > 30 µM | IC50 [4]: 30 µM

CC(=O)NC[C@H]1CN(c2ccc(N3CCO[C@]4(CCCOC4)C3)c(F)c2)C(=O)O1 [Compound 19b]
CYP inhibition [2]: >100 µM | EC50 [3]: > 30 µM | IC50 [4]: > 30 µM

CC(=O)NC[C@H]1CN(c2ccc(N3CCOC(C)(CCN(C)C)C3)c(F)c2)C(=O)O1 (stereo partly drawn) [Compound 23]
MIC [1]: > 32^b μg/mL

CC(=O)NC[C@H]1CN(c2ccc(N3CCOC4(CCCNC4)C3)c(F)c2)C(=O)O1 (stereo partly drawn) [Compound 25]
MIC [1]: > 32^b μg/mL

CC(=O)NC[C@H]1CN(c2ccc(N3CCOC4(CCNC4)C3)c(F)c2)C(=O)O1 (stereo partly drawn) [Compound 27]
MIC [1]: > 32^b μg/mL

CC(=O)NC[C@H]1CN(c2ccc(N3CCOCC3)c(F)c2)C(=O)O1 [Linezolid, linezolid, reference compound]
CYP inhibition [2]: >100 µM | EC50 [3]: > 30 µM
